According to ChEMBL document CHEMBL4725482, “In Silico-Guided Identification of New Potent Inhibitors of Carbonic Anhydrases Expressed in Vibrio cholerae” (ACS Med Chem Lett, 2020):

Columns and labels:
Carbonic anhydrase 1 = Carbonic anhydrase 1 (Homo sapiens, UniProt P00915)
Carbonic anhydrase 2 = Carbonic anhydrase 2 (Homo sapiens, UniProt P00918)

Sequence of Carbonic anhydrase 1 (P00915 whole entry): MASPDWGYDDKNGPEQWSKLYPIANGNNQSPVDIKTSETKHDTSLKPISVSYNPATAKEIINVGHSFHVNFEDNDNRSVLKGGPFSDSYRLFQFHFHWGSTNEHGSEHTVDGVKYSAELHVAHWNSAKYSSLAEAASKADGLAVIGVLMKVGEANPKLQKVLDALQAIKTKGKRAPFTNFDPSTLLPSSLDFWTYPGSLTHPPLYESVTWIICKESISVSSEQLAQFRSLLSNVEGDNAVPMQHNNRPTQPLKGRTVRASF

SMILES	Ki (Carbonic anhydrase 1) [nM]	Ki (Carbonic anhydrase 2) [nM]
CSCCC(=O)NCc1ccc(S(N)(=O)=O)cc1	572	69.5
Cc1cccc(C(=O)NCc2ccc(S(N)(=O)=O)cc2)c1	60.7	3.3
NS(=O)(=O)c1ccc(CNC(=O)c2ccsc2)cc1	44.2	83.8
NS(=O)(=O)c1ccc(CNC(=O)c2cc(Cl)ccc2Cl)cc1	77.8	31.6

More lines, in order of falling Ki (Carbonic anhydrase 1), values ahead:

Ki (Carbonic anhydrase 1) [nM]	Ki (Carbonic anhydrase 2) [nM]	SMILES
2110	920	NS(=O)(=O)c1ccc(CNC(=O)c2ccc(-c3ccccc3)cc2)cc1
269	26.3	NS(=O)(=O)c1ccc(CNC(=O)Cc2ccccc2F)cc1
98.3	54.4	NS(=O)(=O)c1ccc(CNC(=O)c2ccccc2Cc2ccccc2)cc1
95	63	NS(=O)(=O)c1ccc(CNC(=O)c2ccc(Br)cc2)cc1
65.9	5.1	NS(=O)(=O)c1ccc(CNC(=O)c2cccc(Cl)c2)cc1
